What all share (assay): growth of human tumour cells (NCI), 48 h
Assay [1] has as its system IGROV-1.
For assay [2], the system named is UACC-257.
Assay [3] concerns HT-29.
The subject of assay [4] is MDA-N.
Assay [5] concerns OVCAR-3.
Assay [6] has as its system SN12C.
In assay [7] the test system is HCT-15.
The test system of assay [8] is 786-0.
Assay [9] deals with SK-MEL-2.
The test system of assay [10] is HCC 2998.
The test system of assay [11] is UACC-62.
In assay [12] the test system is NCI-H522.
Assay [13] has as its system PC-3.
Assay [14] has as its system UO-31.
Assay [15] has as its system SF-295.
Assay [16] relates to TK-10.
For assay [17], the system named is Hs-578T.
Assay [18] has as its system M14.
Assay [19] has as its system HOP-92.
The test system of assay [20] is T47D.

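How tested: cells in 96-well plates exposed to compound for 48 hours at five concentrations. GI50: concentration for 50% inhibition of growth.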 Activity calls are given as the source filed them. Cut-off read from the data, not from the text of the source: active = GI50 up to about 1.1 µM and inactive = higher.

Consider `CCC(C)[C@H]1C(=O)N=C(N)N1C(=O)OCc1ccccc1` (some centres not stated), for which the GI50 in assay [1], in assay [2], in assay [3], in [4], in [5] and in assay [6] was > 100 µM (inactive) throughout. Besides, the GI50 in assay [7] was greater than 100 µM; in [8], > 100 µM (inactive); in [9], > 100 µM (inactive); in assay [10], > 100 µM (inactive); in assay [11] it was > 100 µM (inactive); in assay [12], > 100 µM (inactive). The GI50 was > 100 µM (inactive) in [13], 78 µM (inactive) in assay [14], > 100 µM (inactive) in [15] and > 100 µM (inactive) in [16].
With `COc1ccc2c(c1)C(=O)CC(C(N)=O)C2` (configuration not stated), the GI50 in assay [1], in [2], in [3], in [5], in assay [17] and in [18] was > 100 µM (inactive) throughout. Also, the GI50 is > 100 µM (inactive) in [6]; greater than 100 µM in [7]; > 100 µM (inactive) in assay [8]; > 100 µM (inactive) in [9]; > 100 µM (inactive) in assay [10]; > 100 µM (inactive) in assay [11]. The GI50 in assay [19], in assay [12], in assay [20], in assay [13], in assay [14] and in [15] was > 100 µM (inactive) throughout. Moreover, the GI50 in [16] is > 100 µM (inactive).
As to `O=C(CCN1CCN2c3ccccc3CCC2C1)c1ccc(F)cc1` (configuration not stated), the GI50 in assay [1] is 22.4 µM (inactive); in assay [2] it was 34.7 µM (inactive); in assay [3] it was 18.8 µM (inactive); in [5] it was 32.1 µM (inactive); in assay [17] it was 35.6 µM (inactive); in assay [18], 49.7 µM (inactive). In addition, the GI50 is 48.6 µM (inactive) in assay [6]; 20.8 µM in [7]; 18.9 µM (inactive) in assay [8]; 23 µM (inactive) in assay [9]; 31 µM (inactive) in assay [11]; 33.9 µM (inactive) in [19]. In addition, the GI50 was 15.4 µM (inactive) in [12]; 20 µM (inactive) in [20]; 42.8 µM (inactive) in [13]; 17.6 µM (inactive) in [14]; > 100 µM (inactive) in assay [15]; 29.6 µM (inactive) in assay [16].
With `CCC(CC)C(=O)OC[n+]1ccc(-c2c(COC(=O)NC(C)C)c(COC(=O)NC(C)C)c3n2CCC3)cc1`, the GI50 in [1], in [2], in [4], in [5], in assay [17] and in assay [18] was > 100 µM (inactive) each time. For the same compound, the GI50 in [6] is > 100 µM (inactive); in [7], greater than 100 µM; in [8], > 100 µM (inactive); in assay [10], > 100 µM (inactive); in [19], > 100 µM (inactive); in assay [12] it was > 100 µM (inactive). The GI50 in assay [13], in [14] and in assay [15] was > 100 µM (inactive) in each case.
Turning to `COc1ccc(C(C2=C(O)COC2=O)c2cc3c(cc2O)OCO3)cc1OC` (configuration not stated), the GI50 in assay [1], in assay [2], in assay [3], in assay [4], in [5] and in [17] was > 100 µM (inactive) each time. The GI50 in assay [18] is > 100 µM (inactive); in [6], > 100 µM (inactive); in [7], greater than 100 µM; in assay [8], > 100 µM (inactive); in assay [9] it was > 100 µM (inactive); in [10], > 100 µM (inactive). Further, the GI50 in assay [11], in [19], in assay [13], in assay [14], in assay [15] and in assay [16] was > 100 µM (inactive) each time.
Take `Brc1nc2c3ccccc3ncn2c1Br`: the GI50 in assay [1] was 35.9 µM (inactive); in assay [2], 33 µM (inactive); in assay [3] it was 29.3 µM (inactive); in [5] it was 0.316 µM (active); in [18], 38.5 µM (inactive); in assay [6], 30.1 µM (inactive). For the same compound, the GI50 was 35.3 µM in [7]; 37.2 µM (inactive) in assay [8]; 27.5 µM (inactive) in assay [9]; 46.9 µM (inactive) in [10]; 16.4 µM (inactive) in assay [11]; 27.9 µM (inactive) in assay [19]. Also, the GI50 in assay [12] is 18.7 µM (inactive); in assay [14], 36.7 µM (inactive); in assay [15], 34.4 µM (inactive); in [16], 56.4 µM (inactive).
With `O=C1OC(c2cccc(C(F)(F)F)c2)(c2cccc(C(F)(F)F)c2)c2ccc3ccccc3c21`, the GI50 in assay [1] was > 10 µM (inactive); in assay [2], 13.1 µM (inactive); in assay [3] it was > 10 µM (inactive); in [5] it was 4.23 µM (inactive); in assay [18], > 10 µM (inactive); in assay [6] it was > 10 µM (inactive). Moreover, the GI50 in [7] was 9.25 µM; in assay [8] it was > 10 µM (inactive); in assay [9], > 10 µM (inactive); in assay [10], > 10 µM (inactive); in [11] it was > 10 µM (inactive); in [19], 28.8 µM (inactive). For the same compound, the GI50 in assay [12] is > 10 µM (inactive); in assay [14], > 10 µM (inactive); in assay [15], 15.2 µM (inactive); in assay [16] it was > 10 µM (inactive).
On to `COc1ccccc1CC(C)N` (configuration not stated), for which the GI50 in assay [1], in assay [2], in assay [3], in assay [5], in [18] and in assay [6] was > 100 µM (inactive) throughout. Moreover, the GI50 is greater than 100 µM in assay [7]; > 100 µM (inactive) in [8]; > 100 µM (inactive) in assay [9]; > 100 µM (inactive) in [10]; > 100 µM (inactive) in assay [11]; > 100 µM (inactive) in assay [19]. Also, the GI50 in [12], in [14], in assay [15] and in assay [16] was > 100 µM (inactive) throughout.
Turning to `CN(NC(=O)/C(=C/c1ccc(Cl)cc1)NC(=O)c1ccccc1)c1cn[nH]c(=O)c1Cl`, the GI50 in assay [1] is 41.4 µM (inactive); in [2], > 100 µM (inactive); in assay [3] it was > 100 µM (inactive); in assay [4], > 100 µM (inactive); in assay [5] it was 87.1 µM (inactive); in [17], > 100 µM (inactive). Further, the GI50 in [18] was > 100 µM (inactive); in [6], > 100 µM (inactive); in assay [7] it was greater than 100 µM; in assay [8], > 100 µM (inactive); in assay [9], > 100 µM (inactive); in assay [11] it was 97.1 µM (inactive). Moreover, the GI50 in [19] is > 100 µM (inactive); in assay [12], 17.5 µM (inactive); in assay [13], > 100 µM (inactive); in assay [14], > 100 µM (inactive); in [15] it was 46.6 µM (inactive); in [16], > 100 µM (inactive).

The values are drawn from ChEMBL document CHEMBL1201862, “PubChem BioAssay data set” (2004).
